Experimental data taken from patent US20250002470A1, “NITROGEN-CONTAINING COMPOUND, PREPARATION METHOD THEREFOR AND APPLICATION THEREOF” (ZHEJIANG AIXPLORER BIOTECH CO., LTD., priority 2021, published 2025).

Assays:
[1] = In vivo pharmacokinetic evaluation in mice (IV and PO); settings: CD-1 mice; for AUC / clearance / half-life / Vd / Cmax: mouse, plasma; for Vd: read-out: Vss
Experimental: CD-1 mice, after fasting overnight (free drinking), are divided into tail vein (IV) and gavage administration (PO) groups. The tail vein administration group collected 0.1 mL of blood from the orbital venous plexus before administration and 5 minutes, 15 minutes, 0.5 hours, 1 hour, 2 hours, 4 hours, 8 hours, 12 hours, and 24 hours after administration, and sample centrifugation at 4° C. for 5 minutes, and stored at −70° C. for testing. […] The plasma parent drug concentration was determined by LC-MS/MS.

NLRP3 = target: T1, NLRP3 (Homo sapiens, UniProt Q96P20); assay: IL-1β (interleukin-1β) secretion in IFN-γ-differentiated, LPS/ATP-stimulated THP-1 cells (half inhibition rate of NLRP3); type: cell-based; settings: IFN-γ 25 ng/mL, LPS 50 ng/mL, ATP 5 mM
T1 construct: endogenous in cells; host or cells: THP-1 cells (IFN-γ differentiated, LPS primed, ATP stimulated)
Experimental: Remove THP-1 cells from liquid nitrogen and place in a 37° C. water bath until ice melt. Add the cells to 5 mL of warm cell culture medium and centrifuge at 1,000 rpm for 5 min. Discard the supernatant and resuspend and culture in a new cell culture medium.
THP-1 cells are cultured in the culture medium and passaged every 2-3 days.
2.1.1 Add 100 μL of cell suspension per well to the cell plate and incubate the cell plate in a 37° C., 5% CO2 incubator for 24 hours.
2.2.1 Discard the supernatant of IFN-γ differentiation after differentiation treatment. Add 100 μL of serum-free medium containing LPS (final concentration of 50 ng/mL) to the cell plate. The cell plates were incubated in a 37° C., 5% CO2 incubator for 4 h.
Place the cell plate in an incubator at 37° C. and 5% CO2 for 1 hour.
2.2.3 Add 20 μL of 6×ATP per well according to the plate map (final concentration 5 mM) and incubate the cell plate in a 37° C., 5% CO2 incubator for 1 h. Collect the supernatant (60 μL) and store at −20° C.
The capture antibody mAb Mt175 is diluted to 2 μg/mL with PBS (1:250) and added to the cell plate at 15 μL per well. Keep the plate overnight at 4° C.
2.4.1 Discard the coated antibody and wash 4 times with PBST.
2.4.3 Discard the blocking buffer and wash 4 times with PBST.
2.4.4 Add 25 μL of 2.2.3 collected supernatant sample per well and incubate for 2 h at room temperature.
2.4.5 Discard the samples and wash 4 times with PBST.
2.4.6 Add mAb7P10-biotin (concentration 0.5 ug/mL) to blocking buffer, add 15 μL per well to the cell plate, and incubate for 1 hour at room temperature.
2.4.7 Discard the antibody and wash 4 times with PBST.
2.4.8 Streptavidin-HRP was diluted 1:1000 in blocking buffer, 15 μL per well was added to the cell plate, and incubated for 1 hour at room temperature.
2.4.9 Discard streptavidin-HRP and wash 4 times with PBST.
2.4.10 Add 25 μL of HRP substrate (Surmodics-TMBW-0100-01) per well and incubate the cell plate until a blue product appears.
2.4.11 Add 25 μL of stop solution (Surmodics-LSTP-0100-01) per well, and the blue product turns yellow.
2.4.12 Read the cell plate at 450 nm with a microplate reader.

hERG potassium channel = hERG potassium channel (Homo sapiens, UniProt Q12809); assay: Whole-cell patch-clamp (QPatch) of hERG current in HEK293 cells stably expressing hERG; type: cell-based
Experimental: In this study, a whole-cell patch-clamp technique was used to study the inhibitory effect of compounds on hERG potassium channels and to evaluate the risk of ventricular repolarization toxicity.
The HEK293 cell line stably expressing the hERG potassium channel cells was purchased from Creacell, Inc. (Cat. No. A-0320).
The HEK293 cell line that can stably express the hERG potassium channel, was cultured in DMEM medium containing 10% fetal bovine serum and 0.8 mg/mL G418 at 37° C. and 5% carbon dioxide.
Before the test, the cells were separated with TrypLET Express, centrifuged after adding medium to terminate digestion, resuspended the cell count, adjusted the cell density to 2-3×10^6 cells/mL, and then lightly mixed the cells on a room temperature equilibration shaker for 15-20 min.
Electrophysiological assays were performed using a fully automated patch-clamp QPatch 48 X (Sophion) device. The prepared cells were placed on a centrifuge on the Qpatch bench, the cells were washed using multiple centrifugation/suspension methods, and the cell culture medium was replaced with extracellular fluid. Remove an MTP-96 plate and place it in the location of the MTP source. Remove the QPlate chip and subsequently place the QPlate at the Qplate source location. The robotic arm scans the MTP-96 board and the QPlate chip barcode and grabs it to the measuring station. Draw the intracellular and external fluid from the liquid pool and add them to the intracellular fluid pool, cell and test cell pool of the QPlate chip, respectively. At the measuring station, all measuring sites on the QPlate undergo initial quality control. The quality control process includes aspirating the cell suspension from the cell vessel of the centrifuge and positioning the cells to the chip wells via a pressure controller to establish a high-resistance seal and create a whole-cell recording pattern.
The voltage stimulation protocol for whole-cell patch-clamp recording of whole-cell hERG potassium currents is as follows: the cell membrane voltage clamps at −80 mV when a whole-cell closure is formed. The clamping voltage is depolarized from −80 mV to −50 mV for 0.5 s (as a leakage current detection), then steps to 30 mV for 2.5 s, and then quickly recovers to −50 mV for 4 s to excite the tail current of the hERG channel. The data were collected repeatedly every 10 s to observe the effect of the drug on the hERG tail current. −50 mV stimulation at 0.5 s was used as the leakage current detection. The test data is collected by Qpatch and stored in the connected service station.
First, the current after the effect of each drug concentration and the blank control current are normalized 0, and then the inhibition rate corresponding to each drug concentration is calculated.
Calculate the mean and standard error for each concentration and calculate the semi-inhibitory concentration for each compound using the following Formula:
Y=Bottom+(Top−Bottom)/(1+10^((LogIC50−X)*HillSlope)) The above Formula was used to fit the dose-dependent effect nonlinearly, where C represents the test substance concentration, IC50 is the semi-inhibitory concentration, and h represents the Hill coefficient. Curve fitting and IC50 calculations were performed using Graphpad software.

Chain of hERG potassium channel (Q12809 whole entry): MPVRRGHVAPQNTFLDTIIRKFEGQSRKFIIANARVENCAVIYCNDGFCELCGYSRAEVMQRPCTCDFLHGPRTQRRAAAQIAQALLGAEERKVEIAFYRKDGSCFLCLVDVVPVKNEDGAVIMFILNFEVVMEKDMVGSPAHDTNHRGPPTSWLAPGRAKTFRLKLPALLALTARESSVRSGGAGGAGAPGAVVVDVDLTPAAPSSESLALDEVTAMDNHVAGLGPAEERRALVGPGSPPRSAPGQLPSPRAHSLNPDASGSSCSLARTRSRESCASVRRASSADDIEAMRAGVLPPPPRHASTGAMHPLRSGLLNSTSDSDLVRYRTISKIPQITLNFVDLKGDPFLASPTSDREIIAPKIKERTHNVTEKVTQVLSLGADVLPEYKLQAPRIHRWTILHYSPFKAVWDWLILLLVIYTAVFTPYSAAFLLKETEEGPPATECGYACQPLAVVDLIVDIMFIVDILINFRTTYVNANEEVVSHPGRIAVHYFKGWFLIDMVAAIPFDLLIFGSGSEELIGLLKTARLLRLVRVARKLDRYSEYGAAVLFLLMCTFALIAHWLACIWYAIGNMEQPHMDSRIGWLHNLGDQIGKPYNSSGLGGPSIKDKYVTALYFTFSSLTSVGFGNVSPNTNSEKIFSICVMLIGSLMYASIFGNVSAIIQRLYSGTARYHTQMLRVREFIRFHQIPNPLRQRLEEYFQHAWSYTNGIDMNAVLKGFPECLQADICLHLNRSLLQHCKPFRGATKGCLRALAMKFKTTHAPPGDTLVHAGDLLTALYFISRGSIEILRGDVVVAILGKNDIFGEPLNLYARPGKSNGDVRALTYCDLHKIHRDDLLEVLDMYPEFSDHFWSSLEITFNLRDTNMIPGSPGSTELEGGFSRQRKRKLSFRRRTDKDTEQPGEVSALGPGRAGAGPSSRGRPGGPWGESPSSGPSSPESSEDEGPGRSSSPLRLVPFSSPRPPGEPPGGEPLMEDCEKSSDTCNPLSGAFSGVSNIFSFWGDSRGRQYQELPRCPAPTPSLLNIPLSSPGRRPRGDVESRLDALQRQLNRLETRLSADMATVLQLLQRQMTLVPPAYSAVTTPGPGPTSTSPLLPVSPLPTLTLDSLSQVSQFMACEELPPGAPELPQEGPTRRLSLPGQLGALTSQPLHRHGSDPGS
T1 sequence (Q96P20 whole entry): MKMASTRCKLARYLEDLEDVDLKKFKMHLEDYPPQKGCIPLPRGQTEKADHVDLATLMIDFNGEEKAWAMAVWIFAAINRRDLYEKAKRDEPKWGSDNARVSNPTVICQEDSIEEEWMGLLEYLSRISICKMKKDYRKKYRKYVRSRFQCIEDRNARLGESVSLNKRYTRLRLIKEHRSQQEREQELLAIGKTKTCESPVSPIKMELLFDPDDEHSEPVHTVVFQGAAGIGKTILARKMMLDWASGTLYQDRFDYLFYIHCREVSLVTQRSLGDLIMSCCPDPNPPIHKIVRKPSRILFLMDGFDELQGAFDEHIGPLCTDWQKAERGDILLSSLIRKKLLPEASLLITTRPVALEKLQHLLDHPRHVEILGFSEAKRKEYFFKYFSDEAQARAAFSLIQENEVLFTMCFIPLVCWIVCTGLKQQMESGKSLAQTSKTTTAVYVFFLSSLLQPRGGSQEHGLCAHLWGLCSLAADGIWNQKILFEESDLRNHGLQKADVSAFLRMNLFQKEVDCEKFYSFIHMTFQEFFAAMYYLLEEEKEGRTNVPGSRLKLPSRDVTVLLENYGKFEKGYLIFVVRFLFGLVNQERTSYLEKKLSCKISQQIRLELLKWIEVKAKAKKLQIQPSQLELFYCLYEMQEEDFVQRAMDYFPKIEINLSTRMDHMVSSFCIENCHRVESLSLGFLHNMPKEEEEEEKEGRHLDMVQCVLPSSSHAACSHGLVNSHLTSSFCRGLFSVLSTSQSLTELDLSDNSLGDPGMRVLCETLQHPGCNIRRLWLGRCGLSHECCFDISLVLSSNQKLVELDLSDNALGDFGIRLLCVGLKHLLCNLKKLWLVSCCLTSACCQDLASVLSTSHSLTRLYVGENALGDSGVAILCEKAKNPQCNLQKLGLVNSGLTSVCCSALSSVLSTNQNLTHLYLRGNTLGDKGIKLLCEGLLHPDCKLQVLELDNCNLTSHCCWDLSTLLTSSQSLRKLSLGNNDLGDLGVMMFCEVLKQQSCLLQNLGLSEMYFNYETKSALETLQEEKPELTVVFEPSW

Structure (SMILES)	F ([1]; PO, 20 mg/kg) [%]	AUC ([1]; IV, 3 mg/kg) [ng·h/mL]	clearance ([1]; IV, 3 mg/kg) [mL/min/kg]	half-life ([1]; IV, 3 mg/kg) [h]	Vd ([1]; IV, 3 mg/kg) [L/kg]	AUC ([1]; PO, 20 mg/kg) [ng·h/mL]	Cmax ([1]; PO, 20 mg/kg) [ng/mL]	half-life ([1]; PO, 20 mg/kg) [h]	IC50 (NLRP3) [nM]	IC50 (hERG potassium channel) [nM]
Cc1nc(N[C@@H]2CCCN(CCO)C2)nnc1-c1ccc(C(F)(F)F)cc1O [Embodiment 44, (R)-2-(3-((1-(2-hydroxyethyl)piperidin-3-yl)amino)-5-methyl-1,2,4-triazin-6-yl)-5-(trifluoromethyl)phenol]	95.3	2950	16.8	4.02	4.35	18800	4530	3.62	0.4	> 30000
Cc1nc(N[C@@H]2CCCN([C@@H](C)CO)C2)nnc1-c1ccc(C(F)(F)F)cc1O [Embodiment 147]	78.7	3290	15.2	3.28	3.39	17200	5710	2.76	9	> 30000
Cc1cc(C(F)(F)F)cc(O)c1-c1cnc(N[C@@H]2CCCN(C(C)CO)C2)nn1 (stereo partly drawn) [Embodiment 47, 2-(3-(((3R)-1-(1-hydroxypropyl-2-yl)piperidin-3-yl)amino)-1,2,4-triazin-6-yl)-3-methyl-5-(trifluoromethyl)phenol]	–	–	–	–	–	–	–	–	4.6	> 30000
Oc1cc(C(F)(F)F)ccc1-c1nnc(N[C@@H]2CCCC[C@H]2O)c2ncccc12 [Embodiment 70, 2-(8-(((1R,2R)-2-hydroxycyclohexyl)amino)pyrido[2,3-d]pyridazin-5-yl)-5-(trifluoromethyl)phenol]	–	–	–	–	–	–	–	–	5.3	> 30000
CC(CO)N1CCC[C@@H](Nc2nnc(-c3ccc(C(F)(F)F)cc3O)c3occc23)C1 (stereo partly drawn) [Embodiment 131]	–	–	–	–	–	–	–	–	7.3	> 30000
Cc1cc(C)c(-c2cnc(N[C@@H]3CCCN(CCO)C3)nn2)c(O)c1 [Embodiment 2, (R)-2-(3-((1-(2-hydroxyethyl)piperidin-3-yl)amino)-1,2,4-triazin-6-yl)-3,5-dimethylphenol]	–	–	–	–	–	–	–	–	40.2	> 30000
Cc1nc(N[C@@H]2CCCN(C(C)CO)C2)nnc1-c1ccc(C(F)(F)F)cc1O (stereo partly drawn) [Embodiment 43, 2-(3-(((3R)-1-(1-hydroxypropyl-2-yl)piperidin-3-yl)amino)-5-methyl-1,2,4-triazin-6-yl)-5-(trifluoromethyl)phenol]	–	–	–	–	–	–	–	–	6.5	> 30000
Oc1cc(C(F)(F)F)ccc1-c1nnc(N[C@@H]2CCCC[C@H]2O)c2c(F)cccc12 [Embodiment 135]	–	–	–	–	–	–	–	–	5.1	> 30000
Cc1nc(N[C@@H]2CCCN(C(C)(C)CO)C2)nnc1-c1ccc(C(F)(F)F)cc1O [Embodiment 132]	88.5	3160	15.8	2.81	3.56	18600	3070	2.53	4.1	> 30000
CC(CO)N1CCC[C@@H](Nc2nnc(-c3ccc(C(F)(F)F)cc3O)c3ccncc23)C1 (stereo partly drawn) [Embodiment 126]	–	–	–	–	–	–	–	–	3.9	> 30000
Oc1cc(C(F)(F)F)ccc1-c1nnc(N[C@@H]2CCCC[C@H]2O)c2cc(F)ccc12 [Embodiment 136]	93.8	3250	15.1	6.07	2.35	20300	6520	5.67	4.4	> 30000
Cc1cc(Cl)cc(O)c1-c1cnc(N[C@@H]2CCCC[C@H]2O)nn1 [Embodiment 35, 5-Chloro-2-(3-(((1R,2R)-2-hydroxycyclohexyl)amino)-1,2,4-triazin-6-yl)-3-methylphenol]	–	–	–	–	–	–	–	–	12.4	> 30000
Cc1nc(N[C@@H]2CCCN([C@H](C)CO)C2)nnc1-c1ccc(C(F)(F)F)cc1O [Embodiment 148]	95.2	4750	10.5	4.17	3	30100	7730	3.68	14.4	> 30000
Oc1cc(C(F)(F)F)ccc1-c1nnc(N[C@@H]2CCCC[C@H]2O)c2ccccc12 [Embodiment 64]	–	–	–	–	–	–	–	–	4.7	> 30000
OCCN1CCC[C@@H](Nc2nnc(-c3ccc(Cl)cc3O)c3ccc(F)cc23)C1 [Embodiment 153]	–	–	–	–	–	–	–	–	2.4	> 30000
Cc1cc(C(F)(F)F)cc(O)c1-c1cnc(N[C@@H]2CCCN(CCO)C2)nn1 [Embodiment 48, (R)-2-(3-((1-(2-hydroxyethyl)piperidin-3-yl)amino)-1,2,4-triazin-6-yl)-3-methyl-5-(trifluoromethyl)phenol]	–	–	–	–	–	–	–	–	9.1	> 30000
